Source: patent US20210269447A1, “NOVEL AMINO-IMIDAZOPYRIMIDINE DERIVATIVES AS JANUS KINASE INHIBITORS AND PHARMACEUTICAL USE THEREOF” (LEO Pharma A/S, priority 2018, published 2021)

Key:
[1] = target: T1, Human baculovirus-expressed Janus kinase (JAK) 1 (Homo sapiens, UniProt P23458); assay: JAK1 kinase assay (HTRF); assay type: biochemical; settings: catalytic domain, ATP at Km (7 μM), 40 min
T1 construct: JAK1 (aa 850-1154) and TYK2 (aa 871-1187) are expressed with an N-terminally fused GST-tag; GST (N); purchased Carna Biosciences, Inc 08-144; host or cells: baculovirus expression system
T1 sequence (P23458 850-1154): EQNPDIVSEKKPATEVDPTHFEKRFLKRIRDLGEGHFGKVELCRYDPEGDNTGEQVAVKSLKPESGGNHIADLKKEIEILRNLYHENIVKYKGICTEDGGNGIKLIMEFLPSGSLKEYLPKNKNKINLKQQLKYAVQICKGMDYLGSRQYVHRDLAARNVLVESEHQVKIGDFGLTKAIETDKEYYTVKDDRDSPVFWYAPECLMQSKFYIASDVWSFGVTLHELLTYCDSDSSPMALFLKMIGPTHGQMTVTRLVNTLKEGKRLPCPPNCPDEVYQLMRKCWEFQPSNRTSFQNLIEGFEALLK
Protocol: (§1) Human baculovirus-expressed Janus kinase (JAK) 1, 2, 3 and tyrosin kinase (TYK) 2 were purchased from Carna Biosciences, Inc (#08-144, -045, -046, -147 resp.). All four purified enzymes contain only the catalytic domain. JAK1 (aa 850-1154) and TYK2 (aa 871-1187) are expressed with an N-terminally fused GST-tag, and JAK2 and JAK3 with an N-terminally fused His-tag. Inhibition of phosphorylation of a synthetic peptide was measured in an HTRF-based assay (CisBio #62TKOPEC). First, 75 nL of test compound solution (100% DMSO) was added to a white shallow 384-well plate (NUNC #264706) using a Labcyte ECHO 550 liquid handler. Thereafter, 1 μL of compound dilution buffer (50 mM HEPES, 0.05% bovine serum albumin) and 2 μL of TK solution (TK substrate-biotin in kinase buffer [1× enzymatic buffer from HTRFKinEASE TK kit, 1 mM DTT]) was added. Then, 5 μL kinase-ATP mix (prepared in kinase buffer) was added to the wells and the plates were incubated at RT for 20 (JAK2, 3 and TYK2) to 40 (JAK1) min. For all four kinases a concentration of ATP that corresponded to the Km for ATP was used. The final concentrations of buffers, substrate, kinase and ATP were: JAK1: 50 mM Hepes buffer pH 7.0, 0.01% BSA, 10 mM MgCl2, 1 mM DTT, 7 μM ATP, 50 nM SEB, 1 μM TK Substrate-Biotin and 5 ng JAK1; JAK2: 50 mM Hepes buffer pH 7.0, 0.01% BSA, 5 mM MgCl2, 1 mM DTT, 4 μM ATP, 1 μM TK Substrate-Biotin and 0.1 ng JAK2; JAK3: 50 mM Hepes buffer pH 7.0, 0.01% BSA, 5 mM MgCl2, 1 mM DTT, 2 μM ATP, 1 μM TK Substrate-Biotin and 0.3 ng JAK3; TYK2: 50 mM Hepes buffer pH 7.0, 0.01% BSA, 5 mM MgCl2, 1 mM DTT, 13 μM ATP, 50 nM SEB, 1 μM TK Substrate-Biotin and 0.8 ng TYK2. […] A PerkinElmer Envision reader was used to quantify the HTRF signal using the following filters; 320 nm excitation filter, 665 nm emission filter and a 615 nm 2nd emission filter. A ratio ((665/615)×104) was calculated for each well.

[2] = target: T2, Human baculovirus-expressed Janus kinase (JAK) 2 (Homo sapiens, UniProt O60674); assay: JAK2 kinase assay (HTRF); assay type: biochemical; settings: catalytic domain, ATP at Km (4 μM), 20 min
T2 construct: All four purified enzymes contain only the catalytic domain; His-tag (N); purchased Carna Biosciences, Inc 08-045; host or cells: baculovirus expression system
T2 sequence (O60674 849-1124 limits assumed): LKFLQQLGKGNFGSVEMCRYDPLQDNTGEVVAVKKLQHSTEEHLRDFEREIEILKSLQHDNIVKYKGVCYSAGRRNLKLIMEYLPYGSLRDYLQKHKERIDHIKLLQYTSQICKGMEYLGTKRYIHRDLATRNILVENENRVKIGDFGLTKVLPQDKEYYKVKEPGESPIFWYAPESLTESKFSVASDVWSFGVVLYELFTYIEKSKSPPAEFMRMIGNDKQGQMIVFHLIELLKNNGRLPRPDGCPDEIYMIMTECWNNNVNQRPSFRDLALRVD
Protocol: as §1

[3] = target: T3, Human baculovirus-expressed Janus kinase (JAK) 3 (Homo sapiens, UniProt P52333); assay: JAK3 kinase assay (HTRF); assay type: biochemical; settings: catalytic domain, ATP at Km (2 μM), 20 min
T3 construct: All four purified enzymes contain only the catalytic domain; His-tag (N); purchased Carna Biosciences, Inc 08-046; host or cells: baculovirus expression system
T3 sequence (P52333 822-1111 limits assumed): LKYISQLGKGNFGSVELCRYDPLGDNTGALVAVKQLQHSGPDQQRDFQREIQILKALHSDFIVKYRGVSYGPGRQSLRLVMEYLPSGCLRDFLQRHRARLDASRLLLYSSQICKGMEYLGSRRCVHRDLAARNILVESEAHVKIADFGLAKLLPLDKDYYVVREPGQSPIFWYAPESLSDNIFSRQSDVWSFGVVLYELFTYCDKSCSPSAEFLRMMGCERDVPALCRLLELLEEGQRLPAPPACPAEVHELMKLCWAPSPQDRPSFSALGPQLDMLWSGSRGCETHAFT
Protocol: as §1

[4] = target: T4, Human baculovirus-expressed tyrosin kinase (TYK) 2 (Homo sapiens, UniProt P29597); assay: TYK2 kinase assay (HTRF); assay type: biochemical; settings: catalytic domain, ATP at Km (13 μM), 20 min
T4 construct: JAK1 (aa 850-1154) and TYK2 (aa 871-1187) are expressed with an N-terminally fused GST-tag; GST (N); purchased Carna Biosciences, Inc 08-147; host or cells: baculovirus expression system
T4 sequence (P29597 871-1187): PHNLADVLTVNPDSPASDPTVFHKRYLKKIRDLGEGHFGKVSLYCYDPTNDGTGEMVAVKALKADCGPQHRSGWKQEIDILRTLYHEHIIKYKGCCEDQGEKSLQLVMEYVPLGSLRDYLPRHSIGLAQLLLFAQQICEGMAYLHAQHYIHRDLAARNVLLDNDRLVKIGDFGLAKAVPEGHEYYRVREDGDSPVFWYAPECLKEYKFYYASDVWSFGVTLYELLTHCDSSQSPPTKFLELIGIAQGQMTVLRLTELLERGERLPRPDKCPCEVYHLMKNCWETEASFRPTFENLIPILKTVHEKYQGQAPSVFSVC
Protocol: as §1

STAT5 irfi-bla TF1 cells = assay: STAT5 Assay; assay type: cell-based; settings: TF-1; stimulated with recombinant human erythropoietin (EPO) 10 ng/mL; beta-lactamase reporter
Protocol: Twenty-five μL of a STAT5 irfi-bla TF1 (Invitrogen #K1219) cell suspension was seeded with a density of about 10,000 cells/well in 384-well Black View-plates (PerkinElmer #6007460) with clear bottom in assay medium (Opti-MEM (Invitrogen #11058-021)+0.5% heat inactivated fetal bovine Serum (Invitrogen #10082-147)+1% non-essential amino acids (Invitrogen #11140-050)+1% sodium pyruvate (Invitrogen #11360-070)+1% penicillin/streptomycin (Invitrogen #15140-122)). The cell plates were incubated overnight in a humidified 37° C. air/CO2 (95%/5%) incubator. The following day, 125 nL of solutions of test compounds and reference compounds were transferred to cell plates using the Labcyte Echo 550 liquid handler. The plates were then incubated for 1 h in a humidified 37° C. air/CO2 (95%/5%) incubator. Hereafter recombinant human erythropoietin (EPO) (Invitrogen #PHC9634) was added to the plates also using the Labcyte Echo 550 to a final concentration of 10 ng/mL. The cells were then incubated for 4½-5 h in a humidified 37° C. air/CO2 (95%/5%) incubator. 8 μL of LiveBLAzer substrate mixture (Invitrogen #K1095) were then added to the assay plates, which were then incubated overnight at RT. Fluorescence was then measured: Excitation: 405 nm; Emission: 460 nm (green channel), Emission: 535 nm (blue channel). Background was subtracted in both emission channels and the ratio 460/535 nm was calculated for each well.

STAT6 bla-RA1 cells = assay: STAT6 Assay; assay type: cell-based; settings: stimulated with recombinant human interleukin 4 10 ng/mL; CD40 ligand; beta-lactamase reporter
Protocol: Twenty-five μL of a STAT6 bla-RA1 (Invitrogen #K1243) cell suspension was seeded with a density of 30-40,000 cells/well in 384-well Black View-plates (PerkinElmer #6007460) with clear bottom in assay medium (Opti-MEM (Invitrogen #11058-021)+0.5% heat inactivated fetal bovine Serum (Invitrogen #10082-147)+1% non-essential amino acids (Invitrogen #11140-050)+1% sodium pyruvate (Invitrogen #11360-070)+1% penicillin/streptomycin (Invitrogen #15140-122)); containing 550 ng/mL of CD40 ligand (Invitrogen #PHP0025). The cell plates were incubated overnight in a humidified 37° C. air/CO2 (95%/5%) incubator. The following day, 125 nL of solutions of test compounds and reference compounds were transferred to cell plates using the Labcyte Echo 550 liquid handler. The plates were then incubated for 1 h in a humidified 37° C. air/CO2 (95%/5%) incubator. Hereafter recombinant human interleukin 4 (Invitrogen #PHC0045) were added to the plates also using the Labcyte Echo 550 to a final concentration of 10 ng/mL. The cells were then incubated for 4½-5 h in a humidified 37° C. air/CO2 (95/b/5%) incubator. 8 μL of LiveBLAzer substrate mixture (Invitrogen #K1095) were then added to the assay plates, which were incubated overnight at RT. Fluorescence was then measured: Excitation: 405 nm; Emission: 460 nm (green channel), Emission: 535 nm (blue channel). Background was subtracted in both emission channels and the ratio 460/535 nm was calculated for each well.

SMILES | EC50 [1] | EC50 [2] | EC50 [3] | EC50 [4] | EC50 (STAT5 irfi-bla TF1 cells) | EC50 (STAT6 bla-RA1 cells)
CNc1ncc2nc(C(C)O)n([C@H]3CC[C@H](CC#N)CC3)c2n1 (mixture of isomers) [Compound 2, 2-[trans-4-[8-(1-Hydroxyethyl)-2-(methylamino)purin-9-yl]cyclohexyl]acetonitrile] | 9 nM | 274 nM | 798 nM | 47 nM | 12800 nM | 213 nM
[2H]C([2H])([2H])Nc1ncc2nc([C@@H](C)O)n([C@H]3CC[C@H](CC#N)CC3)c2n1 [Compound 3, 2-[trans-4-[8-[(1R)-1-Hydroxyethyl]-2-(trideuteriomethylamino)purin-9-yl]cyclohexyl]acetonitrile] | 3 nM | 129 nM | 510 nM | 13 nM | 4870 nM | 142 nM
CNc1ncc2nc([C@@H](C)O)n([C@H]3CC[C@H](CC#N)CC3)c2n1 [Compound 1, 2-[trans-4-[8-[(1R)-1-Hydroxyethyl]-2-(methylamino)purin-9-yl]cyclohexyl]acetonitrile] | 5 nM | 157 nM | 602 nM | 19 nM | 5190 nM | 146 nM
